Laboratory results as given in ChEMBL document CHEMBL4765364, “Synthesis, antibacterial and antifungal activity of new 3-biphenyl-3H-Imidazo[1,2-a]azepin-1-ium bromides” (Eur J Med Chem, 2020).
≈ marks a conversion by molar mass, not a printed value. Calls of active or inactive are those of the source. The rule behind the calls is not given here.

Experiments:
[1] = Cytotoxicity against HEK293 cells measured after 20 hrs by resazurin dye based fluorescence assay; assay type: cell-based; conditions: human
Candida albicans [2] = experiment: Antifungal activity against Candida albicans ATCC 90028 measured after 24 hrs by resazurin dye based assay; assay type: functional
Pseudomonas aeruginosa [3] = experiment: Antibacterial activity against Pseudomonas aeruginosa ATCC 27853 measured after 18 hrs; assay type: functional
Escherichia coli [4] = experiment: Antibacterial activity against Escherichia coli ATCC 25922 at 32 ug/ml measured after 18 hrs; assay type: functional
Cryptococcus neoformans [5] = experiment: Antifungal activity against Cryptococcus neoformans ATCC 208821 measured after 24 hrs by resazurin dye based assay; assay type: functional
Acinetobacter baumannii [6] = experiment: Antibacterial activity against Acinetobacter baumannii ATCC 19606 at 32 ug/ml measured after 18 hrs; assay type: functional, ATCC 19606 = CIP 70.34 = JCM 6841
Klebsiella pneumoniae [7] = experiment: Antibacterial activity against Klebsiella pneumoniae ATCC 700603 measured after 18 hrs; assay type: functional
Klebsiella pneumoniae [8] = experiment: Antibacterial activity against Klebsiella pneumoniae ATCC 700603 at 32 ug/ml measured after 18 hrs; assay type: functional
Cryptococcus neoformans [9] = experiment: Antifungal activity against Cryptococcus neoformans ATCC 208821 at 32 ug/ml measured after 24 hrs by resazurin dye based assay; assay type: functional
Acinetobacter baumannii [10] = experiment: Antibacterial activity against Acinetobacter baumannii ATCC 19606 measured after 18 hrs; assay type: functional; conditions: ATCC 19606 = CIP 70.34 = JCM 6841
Staphylococcus aureus [11] = experiment: Antibacterial activity against methicillin resistant Staphylococcus aureus ATCC 43300 measured after 18 hrs; assay type: functional
Pseudomonas aeruginosa [12] = experiment: Antibacterial activity against Pseudomonas aeruginosa ATCC 27853 at 32 ug/ml measured after 18 hrs; assay type: functional
Candida albicans [13] = experiment: Antifungal activity against Candida albicans ATCC 90028 at 32 ug/ml measured after 24 hrs by resazurin dye based assay; assay type: functional
Escherichia coli [14] = experiment: Antibacterial activity against Escherichia coli ATCC 25922 measured after 18 hrs; assay type: functional
Staphylococcus aureus [15] = experiment: Antibacterial activity against methicillin resistant Staphylococcus aureus ATCC 43300 at 32 ug/ml measured after 18 hrs; assay type: functional
[16] = ATCC 19606 = CIP 70.34 = JCM 6841, dose 32.0 µg/ml

Compound	CC50 at 20 h [1]	MIC (Candida albicans [2])	MIC (Pseudomonas aeruginosa [3])	Activity (Escherichia coli [4]; dose 32 µg/ml)	MIC (Cryptococcus neoformans [5])	Activity (Acinetobacter baumannii [6]; dose 32 µg/ml)	MIC (Klebsiella pneumoniae [7])	Activity (Klebsiella pneumoniae [8]; dose 32 µg/ml)	Activity (Cryptococcus neoformans [9]; dose 32 µg/ml)	MIC (Acinetobacter baumannii [10])	MIC (Staphylococcus aureus [11])	Activity (Pseudomonas aeruginosa [12]; dose 32 µg/ml)	Activity (Candida albicans [13]; dose 32 µg/ml)	MIC (Escherichia coli [14])	Activity (Staphylococcus aureus [15]; dose 32 µg/ml)	also measured
CCOc1ccc([N+]2=C3CCCCCN3C(O)(c3ccc(-c4ccccc4)cc3)C2)cc1.[Br-] (stereo unspecified)	2.4 µg/mL	> 32 µg/mL	> 32 µg/mL	>80%	32 µg/mL	>80%	> 32 µg/mL	>80%	>80%	> 32 µg/mL	16 µg/mL	>80%	>80%	> 32 µg/mL	>80%	
OC1(c2ccc(-c3ccccc3)cc2)C[N+](c2ccccc2)=C2CCCCCN21.[Br-] (stereo unspecified)	2.3 µg/mL	> 32 µg/mL	> 32 µg/mL	>80%	> 32 µg/mL	>80%	> 32 µg/mL	>80%	>80%	> 32 µg/mL	32 µg/mL	>80%	>80%	> 32 µg/mL	>80%	
CC/C(=C(\c1ccccc1)c1ccc(OCCN(C)C)cc1)c1ccccc1 [TAMOXIFEN]	9 µg/mL (≈ 24.2 µM)															
OC(Cn1cncn1)(Cn1cncn1)c1ccc(F)cc1F [FLUCONAZOLE]		0.125 µg/mL (≈ 0.408 µM)			8 µg/mL (≈ 26.1 µM)											
COLISTIN			0.25 µg/mL				0.25 µg/mL			0.25 µg/mL				0.125 µg/mL		
OC1(c2ccc(-c3ccccc3)cc2)C[N+](c2ccc(Cl)cc2)=C2CCCCCN21.[Br-] (stereo unspecified)	3.9 µg/mL	> 32 µg/mL	32 µg/mL	>80%	> 32 µg/mL	>80%	> 32 µg/mL	>80%	>80%	> 32 µg/mL	16 µg/mL	>80%	>80%	> 32 µg/mL	>80%	
COc1ccc([N+]2=C3CCCCCN3C(O)(c3ccc(-c4ccccc4)cc3)C2)c(OC)c1.[Br-] (stereo unspecified)	2.4 µg/mL	> 32 µg/mL	32 µg/mL	>80%	32 µg/mL	>80%	> 32 µg/mL	>80%	>80%	> 32 µg/mL	8 µg/mL	>80%	>80%	> 32 µg/mL	>80%	
CCOc1ccc(-[n+]2cc(-c3ccc(-c4ccccc4)cc3)n3c2CCCCC3)cc1.[Br-]	1.7 µg/mL	8 µg/mL	32 µg/mL	>80%	16 µg/mL	>80%	> 32 µg/mL	>80%	>80%	> 32 µg/mL	4 µg/mL	>80%	>80%	> 32 µg/mL	>80%	
COc1ccc([N+]2=C3CCCCN3C(O)(c3ccc(-c4ccccc4)cc3)C2)cc1 (stereo unspecified)																Activity (Escherichia coli [4]; dose 32.0 µg/ml): inactive; Activity (Acinetobacter baumannii [6]; [16]): inactive; Activity (Klebsiella pneumoniae [8]; dose 32.0 µg/ml): inactive; Activity (Cryptococcus neoformans [9]; dose 32.0 µg/ml): inactive; Activity (Pseudomonas aeruginosa [12]; dose 32.0 µg/ml): inactive; Activity (Candida albicans [13]; dose 32.0 µg/ml): inactive; Activity (Staphylococcus aureus [15]; dose 32.0 µg/ml): inactive
OC1(c2ccc(-c3ccccc3)cc2)C[N+](c2ccc3c(c2)OCO3)=C2CCCCCN21.[Br-] (stereo unspecified)	4.5 µg/mL	> 32 µg/mL	> 32 µg/mL	>80%	> 32 µg/mL	>80%	> 32 µg/mL	>80%	>80%	> 32 µg/mL	32 µg/mL	>80%	>80%	> 32 µg/mL	>80%	
OC1(c2ccc(-c3ccccc3)cc2)C[N+](c2ccc(Br)cc2)=C2CCCCCN21.[Br-] (stereo unspecified)	6.1 µg/mL	> 32 µg/mL	> 32 µg/mL	>80%	> 32 µg/mL	>80%	> 32 µg/mL	>80%	>80%	> 32 µg/mL	> 32 µg/mL	>80%	>80%	> 32 µg/mL	>80%	
OC1(c2ccc(-c3ccccc3)cc2)C[N+](c2ccc(OC(F)F)cc2)=C2CCCCCN21.[Br-] (stereo unspecified)	5.8 µg/mL	> 32 µg/mL	> 32 µg/mL	>80%	> 32 µg/mL	>80%	> 32 µg/mL	>80%	>80%	> 32 µg/mL	16 µg/mL	>80%	>80%	> 32 µg/mL	>80%	
COc1ccc([N+]2=C3COCCN3C(O)(c3ccc(-c4ccccc4)cc3)C2)cc1 (stereo unspecified)																Activity (Escherichia coli [4]; dose 32.0 µg/ml): inactive; Activity (Acinetobacter baumannii [6]; [16]): inactive; Activity (Klebsiella pneumoniae [8]; dose 32.0 µg/ml): inactive; Activity (Cryptococcus neoformans [9]; dose 32.0 µg/ml): inactive; Activity (Pseudomonas aeruginosa [12]; dose 32.0 µg/ml): inactive; Activity (Candida albicans [13]; dose 32.0 µg/ml): inactive; Activity (Staphylococcus aureus [15]; dose 32.0 µg/ml): inactive
COc1ccccc1[N+]1=C2CCCCCN2C(O)(c2ccc(-c3ccccc3)cc2)C1.[Br-] (stereo unspecified)	2.2 µg/mL	32 µg/mL	> 32 µg/mL	>80%	8 µg/mL	>80%	> 32 µg/mL	>80%	>80%	> 32 µg/mL	16 µg/mL	>80%	>80%	> 32 µg/mL	>80%	
CCc1ccc([N+]2=C3CCCCCN3C(O)(c3ccc(-c4ccccc4)cc3)C2)cc1.[Br-] (stereo unspecified)	2.2 µg/mL	> 32 µg/mL	32 µg/mL	>80%	32 µg/mL	>80%	> 32 µg/mL	>80%	>80%	> 32 µg/mL	8 µg/mL	>80%	>80%	> 32 µg/mL	>80%	
COc1ccc([N+]2=C3CCCCCN3C(O)(c3ccc(-c4ccccc4)cc3)C2)cc1.[Br-] (stereo unspecified)	2.6 µg/mL	> 32 µg/mL	> 32 µg/mL	>80%	32 µg/mL	>80%	> 32 µg/mL	>80%	>80%	> 32 µg/mL	16 µg/mL	>80%	>80%	> 32 µg/mL	>80%	
